Data as given in patent US10258600B2, “Aryl hydrocarbon receptor (AhR) modifiers as novel cancer therapeutics” (Trustees of Boston University, priority 2010, dated 2019).
Entries after “also recorded” stand apart in the source; their conditions may differ.

Columns and labels:
BP1 cells [1] = assay: Tumor invasion in Matrigel, BP1; type: cell-based, human; conditions: 5 uM, 5 days
Description: (§1) BP1 cells were cultured in the presence of vehicle (left) or 5 uM CB7993113 in Matrigel for 5 days. CB7993113 is not toxic at the highest doses tested, 10 uM.
BP1 cells were cultured in Matrigel in the presence of vehicle, 5 μM DIM (16A), vehicle or 5 uM CB7950998 (16B) for 5 days.

BP1 cells [2] = assay: Toxicity of CB7993113 at highest doses tested; type: cell-based, human; conditions: 10 uM
Description: as §1

[3] = tested on: bone marrow hematopoietic cells; assay: DMBA-induced bone marrow toxicity in mice; type: in vivo, C57BL/6 mice; conditions: 48 hours; for DMBA-induced decrease in total number of bone marrow cells: 50 mg/kg i.p., 50 mg/kg DMBA; for DMBA-induced decrease in pro B cells, pre-B cells and neutrophils: co-administration with 50 mg/kg DMBA
Description: To test the ability of one of the lead compounds described herein, CB7993113, to be absorbed and to function effectively in vivo, C57BL/6 mice were treated with an acutely toxic dose (50 mg/kg) of DMBA, a potent AhR agonist, in the presence or absence of CB7993113 or another AhR inhibitor, CH223191. […] This decrease in the total number of bone marrow cells was prevented by the i.p. injection of 50 mg/kg CH223191 or CB7993113.
Mice then were injected with 50 mg/kg DMBA. Mice were sacrificed 48 hours later. Bone marrow hematopoietic cells were expunged from the bone and viable cells counted. Data are presented as the average number of viable white blood cells+SE. **p<0.01, ***P<0.001, student's t-test. […] C57BL/6 mice (6/group) were treated as in FIG. 8A. The percentage and number of viable bone marrow pro B cells, pre B cells, and neutrophils were determined 48 hours later by flow cytometry. Data are presented as the average number of viable cells of each subtype+SE. (*p<0.05, **P<0.01, student's t-test).

AhR [4] = target: T1, AhR (Mus musculus, UniProt P30561); assay: AhR nuclear translocation, western immunoblot of Hepa-1 nuclear and cytoplasmic extracts; type: cell-based; set-up: endogenous in cells; conditions: Hepa-1 cells
Description: To determine whether the inhibitory action of CB7993113 involves binding to the AhR and blocking its translocation to the nucleus, Hepa-1 cells were treated with 1-10 uM CB7993113. One hour later they were challenged with a strong AhR agonist and prototypic PAH, DMBA (1 uM). After a 30 minute incubation period, cells were harvested and extracts from cell nuclei and cytoplasm were obtained. These extracts then were probed for levels of AhR and, as a loading control, β-actin, by western immunoblotting.
Hepa-1 cells were treated with vehicle or 1-10 μM CH223191. One hour later cells were treated with 0.1 μM DMBA (where indicated) and incubated for 30 minutes. Cells were harvested and proteins from the cytoplasm and nuclei were extracted. Extracted proteins were subjected to AhR- or, as loading control, β-actin-specific western immunoblots. Data are representative of 3 independent experiments.

PPARγ = target: T2, PPARγ (Homo sapiens, UniProt P37231); assay: PPARγ-driven luciferase reporter in Cos 7 cells; type: cell-based; conditions: rosiglitazone 1 μM, 18-24 hrs
T2 construct: expressed in transfected cells; host or cells: Cos 7 cells
T2 sequence (P37231 1-505): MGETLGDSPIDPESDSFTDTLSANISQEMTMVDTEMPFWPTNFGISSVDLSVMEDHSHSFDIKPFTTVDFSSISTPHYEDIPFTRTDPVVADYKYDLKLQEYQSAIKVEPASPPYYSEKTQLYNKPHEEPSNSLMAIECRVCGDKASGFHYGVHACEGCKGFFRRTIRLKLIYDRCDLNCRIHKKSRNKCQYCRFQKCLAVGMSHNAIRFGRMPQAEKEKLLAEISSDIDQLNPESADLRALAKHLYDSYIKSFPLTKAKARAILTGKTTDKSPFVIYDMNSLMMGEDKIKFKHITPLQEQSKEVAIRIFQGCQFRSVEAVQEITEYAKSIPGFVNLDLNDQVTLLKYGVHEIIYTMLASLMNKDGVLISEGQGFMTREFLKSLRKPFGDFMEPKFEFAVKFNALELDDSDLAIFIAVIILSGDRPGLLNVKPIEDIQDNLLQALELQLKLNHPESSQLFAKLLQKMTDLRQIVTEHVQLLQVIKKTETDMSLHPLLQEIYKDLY
T2 sequence (P19793 1-462 partner): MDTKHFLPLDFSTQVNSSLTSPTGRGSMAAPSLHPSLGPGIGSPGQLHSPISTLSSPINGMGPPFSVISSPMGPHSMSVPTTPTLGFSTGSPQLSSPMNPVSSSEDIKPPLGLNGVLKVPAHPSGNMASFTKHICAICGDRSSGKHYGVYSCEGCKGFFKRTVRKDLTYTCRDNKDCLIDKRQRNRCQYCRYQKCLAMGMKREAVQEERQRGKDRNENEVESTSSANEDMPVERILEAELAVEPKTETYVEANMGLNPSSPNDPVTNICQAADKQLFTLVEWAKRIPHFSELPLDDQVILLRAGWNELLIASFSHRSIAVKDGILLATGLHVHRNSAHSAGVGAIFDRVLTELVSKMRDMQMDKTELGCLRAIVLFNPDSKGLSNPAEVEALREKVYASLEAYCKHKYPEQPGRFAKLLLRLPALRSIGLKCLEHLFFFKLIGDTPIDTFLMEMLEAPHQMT
Description: Cos 7 cells were transfected with the peroxisome proliferator activator receptor-γ (PPARγ), its dimerization partner, RXR, a PPARγ-driven luciferase reporter construct, and a control CMV-driven GFP reporter for 24 hours. Cells then were treated with a vehicle, 10 μM AhR inhibitor CH223191, 50 μM AhR inhibitor CMLD-2166, or 10 μM AhR inhibitor CB7993113. (These represent high AhR inhibitor doses). Rosiglitazone (1 μM), a strong PPARγ agonist, was added 1 hour later and cells assayed 18-24 hrs thereafter for PPARγ-driven reporter activity (luciferase intensity), normalized to the GFP signal. Data were pooled from 4 experiments. Unlike their ability to block AhR-driven reporter activity, the AhR inhibitors had no effect on the PPARγ-driven reporter activity.

AhR [5] = target: T3, AhR (Homo sapiens, UniProt P35869); assay: Radiolabeled TCDD displacement from in vitro translated AhR, sucrose gradient; type: binding; set-up: made in house; conditions: fractions 13-16 of sucrose gradient
T3 sequence (P35869 11-848): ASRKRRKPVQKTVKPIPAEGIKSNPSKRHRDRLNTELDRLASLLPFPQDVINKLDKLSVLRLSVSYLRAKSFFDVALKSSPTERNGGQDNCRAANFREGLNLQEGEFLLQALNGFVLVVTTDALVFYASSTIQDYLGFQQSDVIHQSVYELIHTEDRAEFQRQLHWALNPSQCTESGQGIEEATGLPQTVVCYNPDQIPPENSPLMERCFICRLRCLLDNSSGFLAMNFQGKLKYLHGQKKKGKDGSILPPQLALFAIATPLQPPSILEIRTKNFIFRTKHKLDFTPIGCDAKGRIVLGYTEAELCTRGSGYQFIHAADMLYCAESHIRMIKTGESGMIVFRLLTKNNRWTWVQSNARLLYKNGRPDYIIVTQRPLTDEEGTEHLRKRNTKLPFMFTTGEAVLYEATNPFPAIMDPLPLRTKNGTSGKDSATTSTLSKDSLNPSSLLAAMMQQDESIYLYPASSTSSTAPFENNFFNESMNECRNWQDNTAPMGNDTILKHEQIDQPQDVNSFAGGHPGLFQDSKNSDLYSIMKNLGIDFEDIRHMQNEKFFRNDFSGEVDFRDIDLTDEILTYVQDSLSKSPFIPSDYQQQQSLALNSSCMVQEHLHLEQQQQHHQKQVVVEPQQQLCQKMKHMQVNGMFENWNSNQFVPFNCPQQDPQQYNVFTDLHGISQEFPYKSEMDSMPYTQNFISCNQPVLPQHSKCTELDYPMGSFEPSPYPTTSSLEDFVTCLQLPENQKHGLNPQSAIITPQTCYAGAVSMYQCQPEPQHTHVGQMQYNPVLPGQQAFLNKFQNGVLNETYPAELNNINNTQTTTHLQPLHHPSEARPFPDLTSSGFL
Source text: The compounds CMLD-2166 and CB7993113 were mixed with in vitro translated human AhR and radiolabeled TCDD (dioxin), a high affinity AhR ligand. Complexes then were separated on a sucrose gradient and fractions assayed for radioactivity. A decrease in the signal (displacement of radiolabeled TCDD) can be seen in fractions 13-16 indicating binding of the test compound to the AhR and displacement of TCDD.

BP1 and MCF-10F cells = assay: 3H-thymidine incorporation cell growth; type: cell-based, human; conditions: 18 hrs
Hs578T cells [6] = assay: Tumor invasion in Matrigel, Hs578T; type: cell-based, human; conditions: 10^−5M, 7 days
Description: (§2) Hs578T cells were cultured in Boyden Chambers (FIG. 7A) or in Matrigel (FIG. 7B) in the presence of DMSO, 10^−5M CMLD-2166, CMLD-2186 (a 2166 enantiomer) or CH223191 and assayed for invasion 2 (Boyden Chambers) or 7 (Matrigel) days later.

Hs578T cells [7] = assay: Tumor invasion in Boyden Chambers; type: cell-based, human; conditions: 10^−5M, 2 days
Description: as §2

AhR [8] = target: T3, AhR; assay: AhR-responsive pGudLuc reporter, constitutive AhR activity; type: cell-based; set-up: malignant BP1 and immortalized MCF-10F cells that were transiently transfected with AhR-responsive pGudLuc; endogenous in cells; host or cells: BP1 and MCF-10F cells; conditions: BP1 and MCF-10F cells, 24 hrs
AhR [9] = target: T1, AhR; assay: High throughput AhR-driven GFP reporter bioassay in H1G1 cells; type: cell-based; set-up: H1G1 cells expressing an AhR-driven GFP reporter construct; endogenous in cells; host or cells: H1G1 cells; conditions: titered in presence of 1 μM BNF; read-out: AhR Antagonists IC50
Description: Using a high throughput reporter-based AhR bioassay and cell viability assay, over 4000 CMLD compounds, FDA drugs, and NCI-generated extracts were screened, and 8 non-toxic AhR inhibitors (2 from the CMLD) and 19 AhR agonists (14 from the CMLD) were identified (as shown in, e.g., FIGS. 4A-4B). IC50 values for inhibitors and EC50 values for agonists were determined (Table 1). One of these discovered inhibitors (CMLD-2166), its enantiomer (CMLD-2186), and a previously described lipid soluble AhR inhibitor (CH223191) blocked tumor growth and invasion (FIGS. 5A-5B and 7A-7B).
FIGS. 4A-4B show high-throughput screening (HTS) for AhR agonists and antagonists. […] A dark circle identifies an AhR inhibitor while the light circle indicates an agonist. […] Over 4,000 compounds were screened in this semi-automated assay.

T1 sequence (P30561 10-805 limits assumed): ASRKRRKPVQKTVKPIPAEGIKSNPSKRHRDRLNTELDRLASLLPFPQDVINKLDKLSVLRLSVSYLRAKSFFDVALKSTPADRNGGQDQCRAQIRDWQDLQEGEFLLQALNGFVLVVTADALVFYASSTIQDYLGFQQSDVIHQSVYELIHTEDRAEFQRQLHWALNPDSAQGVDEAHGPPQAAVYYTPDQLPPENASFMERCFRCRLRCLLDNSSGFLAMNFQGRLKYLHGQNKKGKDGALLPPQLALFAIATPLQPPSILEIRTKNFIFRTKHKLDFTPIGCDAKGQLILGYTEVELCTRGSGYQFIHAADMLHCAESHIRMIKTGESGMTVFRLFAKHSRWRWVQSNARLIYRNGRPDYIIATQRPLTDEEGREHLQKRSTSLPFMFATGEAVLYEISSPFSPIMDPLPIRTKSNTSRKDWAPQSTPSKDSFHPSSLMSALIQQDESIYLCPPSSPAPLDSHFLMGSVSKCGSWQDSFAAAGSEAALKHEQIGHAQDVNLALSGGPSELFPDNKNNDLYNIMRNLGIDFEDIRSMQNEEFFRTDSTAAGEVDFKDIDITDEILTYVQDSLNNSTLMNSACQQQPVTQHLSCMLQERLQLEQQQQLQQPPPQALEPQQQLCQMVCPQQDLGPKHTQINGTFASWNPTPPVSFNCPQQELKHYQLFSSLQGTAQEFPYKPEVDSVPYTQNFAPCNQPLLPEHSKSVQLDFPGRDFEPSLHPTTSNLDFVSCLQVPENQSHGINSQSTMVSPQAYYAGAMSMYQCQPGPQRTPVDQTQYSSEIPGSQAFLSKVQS
T1 sequence (P11499 whole entry partner): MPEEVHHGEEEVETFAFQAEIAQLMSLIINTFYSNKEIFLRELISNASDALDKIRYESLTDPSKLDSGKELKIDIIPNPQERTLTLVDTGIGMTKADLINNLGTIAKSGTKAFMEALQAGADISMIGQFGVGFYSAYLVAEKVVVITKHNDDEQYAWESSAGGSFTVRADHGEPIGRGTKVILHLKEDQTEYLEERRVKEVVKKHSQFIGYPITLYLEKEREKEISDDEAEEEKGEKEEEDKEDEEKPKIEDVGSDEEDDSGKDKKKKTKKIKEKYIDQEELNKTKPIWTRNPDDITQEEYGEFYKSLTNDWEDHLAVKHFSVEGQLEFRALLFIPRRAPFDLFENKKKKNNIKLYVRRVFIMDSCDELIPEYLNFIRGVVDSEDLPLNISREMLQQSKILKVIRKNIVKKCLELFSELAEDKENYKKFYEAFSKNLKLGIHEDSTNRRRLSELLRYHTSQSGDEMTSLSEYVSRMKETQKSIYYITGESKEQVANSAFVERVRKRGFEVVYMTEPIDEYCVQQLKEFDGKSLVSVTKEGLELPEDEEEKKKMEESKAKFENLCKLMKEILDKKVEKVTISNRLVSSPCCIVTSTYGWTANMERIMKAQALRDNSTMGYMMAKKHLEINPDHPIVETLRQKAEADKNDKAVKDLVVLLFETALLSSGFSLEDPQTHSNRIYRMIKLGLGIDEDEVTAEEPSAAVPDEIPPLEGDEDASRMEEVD
T1 sequence (O08915 whole entry partner): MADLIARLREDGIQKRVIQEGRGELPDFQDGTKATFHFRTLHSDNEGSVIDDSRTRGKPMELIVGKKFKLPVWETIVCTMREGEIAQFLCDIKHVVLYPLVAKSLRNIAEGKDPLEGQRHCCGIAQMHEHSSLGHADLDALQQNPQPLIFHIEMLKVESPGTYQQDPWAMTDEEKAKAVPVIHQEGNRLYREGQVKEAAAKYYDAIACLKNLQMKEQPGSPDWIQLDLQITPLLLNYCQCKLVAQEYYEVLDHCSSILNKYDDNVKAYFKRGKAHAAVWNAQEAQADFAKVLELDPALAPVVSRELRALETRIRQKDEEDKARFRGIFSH

## CCOC(=O)Oc1c(-c2ccc(Cl)cc2)oc2ccccc2c1=O [CB7950998]
BP1 cells [1]
  BP1 tumor invasion in Matrigel: reduce

## NC(=O)COc1c(-c2ccc(Br)o2)oc2ccccc2c1=O [CB7993113]
BP1 cells [2]
  toxicity: not toxic
[3]
  DMBA-induced decrease in total number of bone marrow cells: prevented
  DMBA-induced decrease in pro B cells, pre-B cells and neutrophils: completely blocked
AhR [4]; 1-10 uM, 1 h before DMBA, 30 min
  DMBA-induced AhR translocation to the nucleus: completely blocked
AhR [4]; no DMBA
  translocation of the AhR to the nucleus, inhibitor alone (agonist activity): no effect
PPARγ; 10 μM
  PPARγ-driven reporter activity: no effect
AhR [5]
  binding to AhR (displacement of radiolabeled TCDD): bind human AhR
BP1 cells [1]
  BP1 tumor invasion in Matrigel: blocks

## Cc1ccccc1N=Nc1ccc(NC(=O)c2ccnn2C)c(C)c1 [CH223191, reference compound]
BP1 and MCF-10F cells
  cell growth (3H-thymidine incorporation): blocked; also recorded: inhibit
[3]
  DMBA-induced decrease in total number of bone marrow cells: prevented
  DMBA-induced decrease in pro B cells, pre-B cells and neutrophils: completely blocked
Hs578T cells [6]
  tumor invasion, Matrigel: inhibit tumor invasion
PPARγ; 10 μM
  PPARγ-driven reporter activity: no effect
Hs578T cells [7]
  tumor invasion, Boyden Chambers: inhibit tumor invasion
AhR [8]
  constitutive AhR activity (pGudLuc activity): inhibit
AhR [9]
  IC50: 330 nM

## COc1ccc2c(c1)C(=O)[C@H](OC(=O)NS(=O)(=O)c1ccc(C)cc1)[C@@H](c1ccc(OC)c(Br)c1)O2 [CMLD-2166]
BP1 and MCF-10F cells
  cell growth (3H-thymidine incorporation): blocked
BP1 and MCF-10F cells; listed as CMLD 2166
  cell growth (3H-thymidine incorporation): inhibit
Hs578T cells [6]
  tumor invasion, Matrigel: inhibit tumor invasion
PPARγ; 50 μM
  PPARγ-driven reporter activity: no effect
Hs578T cells [7]
  tumor invasion, Boyden Chambers: inhibit tumor invasion
AhR [5]
  binding to AhR (displacement of radiolabeled TCDD): bind human AhR
AhR [8]
  constitutive AhR activity (pGudLuc activity): inhibit
AhR [9]
  IC50: 200 nM

## c1ccc2c(Cc3c[nH]c4ccccc34)c[nH]c2c1 [DIM, 3,3′-diindolylmethane, reference compound]
BP1 cells [1]
  BP1 tumor invasion in Matrigel: reduce
